Like-named read-outs stand apart in the source and are kept apart here.
Assays:
[1] = system: Vero cells; test: Toxicity assay on Vero cells; assay type: cell-based, African Green Monkey
[2] = system: Herpes Simplex Virus type 2, Strain MS-HSV2; test: IC50 assay against HSV2 in Vero cells; assay type: cell-based; settings: 50-100 infectious units of HSV2
[3] = system: murine Leukemia Virus (ATCC VR-1445); test: Inhibition of murine Leukemia Virus in feline PG4 cells; assay type: cell-based; settings: 10 μg/ml spinosad, virus load of 30 infectious units
[4] = system: Respiratory Syncytial Virus Strain A2-RSV; assay type: cell-based; settings: 9.5 μg/ml spinosad, virus load of 50-100 infectious units, HEp2 cells
[5] = system: pancreatic tumor xenograph; test: Mouse pancreatic tumor xenograph assay; assay type: in vivo; settings: for tumor volume on day1: baseline
[6] = system: isolated mitochondria of H460 cells; test: Oxygen consumption in isolated mitochondria, Seahorse XF24; assay type: biochemical; settings: 4° C. for three hours
[7] = system: macrophage mice cell type J774; settings: read-out: Cytotoxicity CC50; J774
[8] = system: leishmania donovati
[9] = system: BxPC-3 Human pancreatic adenocarcinoma; settings: for Cell Survival (% of Control; mean ± S.D.): 24-hour exposure, 24 h post end of exposure
[10] = system: DU 145 Human prostatic carcinoma cells; settings: for Cell Survival (% of Control; mean ± S.D.): 24-hour exposure, 24 h post end of exposure
[11] = system: PC-3 Human prostatic adenocarcinoma cells; settings: for Cell Survival (% of Control; mean ± S.D.): 24-hour exposure, 24 h post end of exposure
[12] = system: MDA-MB-231 Human breast adenocarcinoma cells; settings: for Cell Survival (% of Control; mean ± S.D.): 24-hour exposure, 24 h post end of exposure
[13] = system: PC-3 Human prostatic adenocarcinoma cells; test: Cell proliferation assay, PC-3; settings: 24 hours of exposure (control 3.22)
Description: (§1) Cell Proliferation assay: for each cell line, cell suspensions ranging in concentration of approximately 2-5×10^5 cells/mL of growth medium were prepared. 1 mL of each of these suspensions was aseptically transferred to a sterile tissue culture flask (12.5 or 25 cm^2) containing fresh growth medium. Three flasks (triplicate) were used for each group, and for each time point of viable cell number/mL measurement at 1, 3 and 5 days post-treatment (9 dishes per group in total). The cells were incubated and allowed to adhere to the bottom of the flasks and proliferate.
(§2) After approximately 24 hours of exposure to treatments, dosing media was replaced with fresh growth media and cells were returned to the incubator and allowed to proliferate.
(§3) Assessment of Cell Proliferation: For each cell line, measurement of viable cell number/mL was performed as already described above. This measurement was performed in triplicate from three flasks per group, at 1, 3 and 5 days post-removal of treatment.

[14] = system: BxPC-3 Human pancreatic adenocarcinoma; test: Cell proliferation assay, BxPC-3; settings: 24 hours of exposure (control 3.02)
Description: as §1, §2, §3

[15] = system: DU 145 Human prostatic carcinoma cells; test: Cell proliferation assay, DU 145; settings: for Cell Number Doubling Time: 24 hours of exposure (control 2.17)
Description: as §1, §2, §3

[16] = system: MDA-MB-231 Human breast adenocarcinoma cells; test: Cell proliferation assay, MDA-MB-231; settings: for Cell Number Doubling Time: 24 hours of exposure (control 3.11)
Description: as §1, §2, §3

[17] = system: BxPC-3, DU 145, PC-3 and MDA-MB-231; test: Cell proliferation assay, all cell lines tested; settings: low dose level 5 μg/mL
Description: as §1, §2, §3

[18] = system: Cytomegalovirus, Davis Strain-CMV; test: Inhibition of Cytomegalovirus in HS27 fibroblasts; settings: 4.75 μg/ml spinosad, virus load of 50-100 infectious units, HS27 cells
[19] = system: Plasmodium vinckei; test: In vivo test against Plasmodium vinckei parasites in mice; settings: BALB/c female mice, 25 mg/kg intraperitoneally daily for 6 consecutive days in DMSO; vs DMSO control; P=0.0085
[20] = system: Herpes Simplex Virus 1 McIntyre (HSV1); test: IC50 assay against HSV1 in Vero cells (cytopathic effect); settings: 100 infectious units of Herpes Simplex 1, up to 5 days
Description: We performed an IC50 assay, in which the amount of virus in the quadruplicate assay wells is identical, and the concentration of drug varies over a range of ten concentrations. This assay was performed in a 48 well tissue culture dish, each well containing the appropriate cell line at approximately 90% confluence. […] Approximately 100 infectious units per well were added to each test well. Cells, HSV1 virus and drug are incubated for up to 5 days and cytopathic effect is determined.

[21] = system: Plasmodium falciparum; test: ATP levels in the Plasmodium parasite, luciferin/luciferase assay
[22] = mouse code 3, total spinosad dosed 390 mg/kg i.p. over 20 days
[23] = mouse code 6, total spinosad dosed 360 mg/kg i.p. over 20 days
[24] = mouse code 9, total spinosad dosed 540 mg/kg i.p. over 20 days
[25] = mouse code 10, total spinosad dosed 540 mg/kg i.p. over 20 days
[26] = mouse code 12, total spinosad dosed 615 mg/kg i.p. over 20 days
[27] = mouse code 13, total spinosad dosed 585 mg/kg i.p. over 20 days
[28] = spinosad 10 μg/mL, succinate substrate
[29] = spinosad 20 μg/mL, succinate substrate
[30] = spinosad 40 μg/mL, succinate substrate
[31] = spinosad 80 μg/mL, succinate substrate
[32] = BxPC-3, 24 h post end of 24-hour exposure
[33] = DU 145, 24 h post end of 24-hour exposure
[34] = PC-3, 24 h post end of 24-hour exposure
[35] = MDA-MB-231, 24 h post end of 24-hour exposure

Spinosad
state of treated cell monolayer [1]: healthy
toxicity against Vero cells [1]: no toxicity
IC50 [2]: about 5 μg/ml
IC100 [2]: about 11.5 μg/ml
inhibition of virus [3]: no inhibition
inhibition of virus [4]: no inhibition
body weight ([5]; CD-1 athymic nude male mice, spinosad in DMSO i.p., on top of weight loss by DMSO alone): some weight loss
% difference of tumor volume day 21 vs day1 ([5]; mouse code 3, total spinosad dosed 390 mg/kg): −42%
tumor volume on day 21 [5, 22]: 107.7 mm^3
tumor volume on day1 [5, 22]: 184.7 mm^3
% difference of tumor volume day 21 vs day1 ([5]; mouse code 6, total spinosad dosed 360 mg/kg): −2%
tumor volume on day 21 [5, 23]: 254.7 mm^3
tumor volume on day1 [5, 23]: 260.6 mm^3
% difference of tumor volume day 21 vs day1 ([5]; mouse code 9, total spinosad dosed 540 mg/kg): −33%
tumor volume on day 21 [5, 24]: 119.8 mm^3
tumor volume on day1 [5, 24]: 179.9 mm^3
% difference of tumor volume day 21 vs day1 ([5]; mouse code 10, total spinosad dosed 540 mg/kg): −44%
tumor volume on day 21 [5, 25]: 128.9 mm^3
tumor volume on day1 [5, 25]: 228.9 mm^3
% difference of tumor volume day 21 vs day1 ([5]; mouse code 12, total spinosad dosed 615 mg/kg): −11%
tumor volume on day 21 [5, 26]: 142.1 mm^3
tumor volume on day1 [5, 26]: 159.4 mm^3
% difference of tumor volume day 21 vs day1 ([5]; mouse code 13, total spinosad dosed 585 mg/kg): 6%
tumor volume on day 21 [5, 27]: 246.5 mm^3
tumor volume on day1 [5, 27]: 233.3 mm^3
mean volume change ([5]; spinosad treated group (6 mice), total 360-615 mg/kg i.p. over 20 days, day 21 vs day1, DMSO control 54%, P < 0.02): −21%
mean tumor volume decreased by ([5]; spinosad treated group, 21st day, control/DMSO group increased 54%, P-value <0.02): 21%
ADP stimulation ([6]; 20 μg of spinosad): slight increase
spinosad concentration above which mitochondrial integrity is reduced ([6]; succinate substrate): above 40 μg/mL
State III respiration (numerator of RCR) [6, 28]: 711
State IV respiration (denominator of RCR) [6, 28]: 300
State III respiration (numerator of RCR) [6, 29]: 726
State IV respiration (denominator of RCR) [6, 29]: 330
State III respiration (numerator of RCR) [6, 30]: 666
State IV respiration (denominator of RCR) [6, 30]: 430
State III respiration (numerator of RCR) [6, 31]: 598
State IV respiration (denominator of RCR) [6, 31]: 500
CC50 [7]: 42.6 ± 17.3 µM
elimination of parasites in spleen ([8]; BALB/c female mice, 31.6 mg/kg intraperitoneally daily for 14 consecutive days in DMSO, from two weeks post infection, P=0.05): 82%
elimination of parasites in the liver ([8]; BALB/c female mice, 31.6 mg/kg intraperitoneally daily for 14 consecutive days in DMSO, P=0.083): 73%
impact on liver and spleen weight ([8]; BALB/c mice, 31.6 mg/kg i.p. 14 days, Mann-Whitney test): no impact
signs of toxicity ([8]; BALB/c mice, treatment period of 14 days): No sign of toxicity
Calculated LC50 [9, 32]: 11.1 µg/mL
Calculated LC100 [9, 32]: 31.6 µg/mL
Cell Survival (% of Control; mean ± S.D.) ([9]; BxPC-3, spinosad 10 μg/mL): 54.1 ± 9.8 % of Control
Cell Survival (% of Control; mean ± S.D.) ([9]; BxPC-3, spinosad 20 μg/mL): 25.5 ± 2.6 % of Control
Cell Survival (% of Control; mean ± S.D.) ([9]; BxPC-3, spinosad 30 μg/mL): 5.3 ± 2.6 % of Control
Calculated LC50 [10, 33]: 12.5 µg/mL
Calculated LC100 [10, 33]: 32.8 µg/mL
Cell Survival (% of Control; mean ± S.D.) ([10]; DU 145, spinosad 10 μg/mL): 56.8 ± 3.1 % of Control
Cell Survival (% of Control; mean ± S.D.) ([10]; DU 145, spinosad 20 μg/mL): 30.2 ± 4.5 % of Control
Cell Survival (% of Control; mean ± S.D.) ([10]; DU 145, spinosad 30 μg/mL): 7.6 ± 4.1 % of Control
Calculated LC50 [11, 34]: 13.3 µg/mL
Calculated LC100 [11, 34]: 34.2 µg/mL
Cell Survival (% of Control; mean ± S.D.) ([11]; PC-3, spinosad 10 μg/mL): 53.8 ± 8.0 % of Control
Cell Survival (% of Control; mean ± S.D.) ([11]; PC-3, spinosad 20 μg/mL): 42.0 ± 9.5 % of Control
Cell Survival (% of Control; mean ± S.D.) ([11]; PC-3, spinosad 30 μg/mL): 5.9 ± 2.5 % of Control
Calculated LC50 [12, 35]: 13.4 µg/mL
Calculated LC100 [12, 35]: 36.7 µg/mL
Cell Survival (% of Control; mean ± S.D.) ([12]; MDA-MB-231, spinosad 10 μg/mL): 56.1 ± 13.7 % of Control
Cell Survival (% of Control; mean ± S.D.) ([12]; MDA-MB-231, spinosad 20 μg/mL): 38.0 ± 5.7 % of Control
Cell Survival (% of Control; mean ± S.D.) ([12]; MDA-MB-231, spinosad 30 μg/mL): 13.2 ± 1.4 % of Control
Cell Number Doubling Time ([13]; PC-3, spinosad 5 μg/mL): 4.17 days
Cell Number Doubling Time ([13]; PC-3, spinosad 10 μg/mL): 5.55 days
Cell Number Doubling Time ([13]; PC-3, spinosad 15 μg/mL): 6.24 days
Cell Number Doubling Time ([14]; BxPC-3, spinosad 5 μg/mL): 3.86 days
Cell Number Doubling Time ([14]; BxPC-3, spinosad 10 μg/mL): 4.76 days
Cell Number Doubling Time ([14]; BxPC-3, spinosad 15 μg/mL): 6.25 days
Cell Number Doubling Time ([15]; DU 145, spinosad 5 μg/mL): 2.89 days
Cell Number Doubling Time ([15]; DU 145, spinosad 10 μg/mL): 2.83 days
Cell Number Doubling Time ([15]; DU 145, spinosad 15 μg/mL): 3.18 days
cell number doubling time from 3 days post-treatment increased by ([15]; high dose level 15 μg/mL, DU 145): approximately 46.5%
Cell Number Doubling Time ([16]; MDA-MB-231, spinosad 5 μg/mL): 3.99 days
Cell Number Doubling Time ([16]; MDA-MB-231, spinosad 10 μg/mL): 5.09 days
Cell Number Doubling Time ([16]; MDA-MB-231, spinosad 15 μg/mL): 7.13 days
cell number doubling time from 3 days post-treatment increased by ([16]; high dose level 15 μg/mL, MDA-MB-231): approximately 129.3%
cell number doubling time from 3 days post-treatment increased by [17]: 27.8-33.2%
inhibition of virus [18]: no inhibition
reduction in the number of Plasmodium vinckei parasites [19]: 70%
IC50 [20]: about 17.42 μg/ml
ATP levels in the parasite ([21]; albumin-containing medium (RPMI-1640), within erythrocytes and after isolation, spinosad 5-10 μg/ml in DMSO): reduces
ATP levels in the parasite ([21]; isolated parasites in saline/spinosad medium (absence of albumin)): unaffected

From patent publication US8697661B2, “Use of spinosyns and spinosyn compositions against herpesviridae viral infections” (priority 2009, dated 2014)
